These results are taken from patent US20240009214A1 (priority 2020, published 2024).

In data set [1] the test system is A549 (human lung alveolar cells) monolayer.
The nature of data set [2]: In vitro toxicity in WI-38 cells (MTS-PMS kit). The data set is classed as cell-based. Conditions: human, WI-38 human lung fibroblast cells, read-out: IC50 (cytotoxicity). The text has this: (§1) The toxicity of ((((((R)-1-(6-amino-9H-purin-9-yl) propan-2-yl) oxy) methyl) (phenoxy) phosphoryl)oxy)methyl pivalate fumarate and Metabolite of compound of formula 1 in different human lung cells viz, WI-38 (human lung fibroblast cells) and Calu-3 (human lung bronchial cells) by using the MTS-PMS kit investigated.
(§2) MTS-PMS kit details (CellTiter 96@ Aqueous kit)
This is a colorimetric method for determining the number of viable cell measures viable cells in proliferation, cytotoxicity or chemosensitivity assays. The assay is composed of solutions of a novel tetrazolium compound [3-(4,5-dimethylthiazol-2-yl)-5-(3-carboxymethoxyphenyl)-2-(4-sulfophenyl)-2H-tetrazolium, inner salt; MTS] and an electron coupling reagent (phenazine methosulfate) PMS. MTS is bioreduced by cells into a formazan product that is soluble in tissue culture medium. The absorbance of the formazan product at 490 nm can be measured directly from 96-well assay plates without additional processing. The conversion of MTS into the aqueous soluble formazan product is accomplished by dehydrogenase enzymes found in metabolically active cells. The quantity of formazan product as measured by the amount of 490 nm absorbance is directly proportional to the number of living cells in culture.
Respective cells were harvested from exponential phase cultures, […] on the cell line's growth rate. After a 24 h recovery period to allow the cells to resume exponential growth. TPF or Metabolite of compound of formula 1 was applied at 6-8 concentrations in duplicate and treatment continued for different time points. After completion of incubation 20 μL/well MTS-PMS reagent was added to each well (MTS-PMS was prepared as follows: CellTiter 96@AQueous Assay Reagents MTS Solution and the PMS Solution should be thawed before use. Remove 2.0 ml of MTS Solution. Add […] of PMS Solution to the 2.0 ml of MTS Solution immediately). Following an incubation period of up to four hours, the plate was read to 490 nm. For calculations, the mean values of duplicate data were used. Sigmoidal concentration-response curves were fitted to the data points (T/C values) obtained for each cell line using 4 parameter non-linear curve fit.
Cells were harvested from exponential phase cultures, […] on the cell line's growth rate. After a 24 h recovery period to allow the cells to resume exponential growth. TPF or Metabolite of compound of formula 1 was applied at 6-8 concentrations in duplicate and treatment continued for different time points. For Calu-3 cells the treatment was the treatment was for 72 hrs while WI-38 cells were treated for 48 and 96 hrs. After the treatment of cells, 20 μL/well MTS-PMS reagent was added. Following an incubation period of up to four hours, the plate was read to 490. […]

In data set [3] the test system is SARS-COV-2 strain NIV 2020-770. Description: microbe, parasite or virus in culture. The data set is classed as cell-based. Conditions: for IC50: Severe acute respiratory syndrome coronavirus 2, 72 h; for SI (selectivity index): against SARS-CoV-2.
Data set [4] can be described thus: In vitro toxicity in Calu-3 cells (MTS-PMS kit). The data set is classed as cell-based. Conditions: human, Calu-3 human lung bronchial cells, read-out: IC50 (cytotoxicity).
Excerpt: as §1, §2
This is a colorimetric method for determining the number of viable cell measures viable cells in proliferation, cytotoxicity or chemosensitivity assays. […] The absorbance of the formazan product at 490 nm can be measured directly from 96-well assay plates without additional processing. […] The quantity of formazan product as measured by the amount of 490 nm absorbance is directly proportional to the number of living cells in culture.
Respective cells were harvested from exponential phase cultures, […] on the cell line's growth rate. […] Following an incubation period of up to four hours, the plate was read to 490 nm. […]
Cells were harvested from exponential phase cultures, […] on the cell line's growth rate. […] Following an incubation period of up to four hours, the plate was read to 490. […]

Data set [5] is described as follows: Cell cytotoxicity determination (MTT) in Vero CCL-81 cells. The format is cell-based. Conditions: monkey. As to the method: Cell Cytotoxicity determination: 100 μL Vero CCL-81 cells were seeded on to 96 well plate at a density of 3×10^6 cells/mL. The plates were incubated for 24 hrs at 37° C. with 5% CO2. After overnight incubation the spent medium was discarded and 100 μL of different concentrations of each drugs prepared earlier from the stock was added to the respective wells in quadruplets. The plates were incubated for 72 hr at 37° C. in 5% CO2. After the incubation, the medium containing drug was discarded. The cell monolayer was washed by adding 100 μL of 1×PBS. 100 μL of plain MEM and 50 μl of MTT (2 mg/ml concentration) was added to each well. Followed by incubation for 4 hrs at 37° C. in 5% CO2. At the end of incubation, the cell supernatant was discarded and 200 μl of DMSO was added to each well to dissolve the formazan crystals. 25 μL of Sorensen's glycine buffer was added immediately to each well. The plates were incubated in dark for 30 min at room temperature. The OD was measured at 570 nm using ELISA plate reader. CC50 value was plotted using Prism Pad application.

A further data set is described as follows: in vitro. Conditions: human.

Where a name gives a salt, the structure may show the parent alone. A value given as a limit tells only on which side of the number the result lay.

Turning to `C[C@H](Cn1cnc2c(N)ncnc21)OC[P@@](=O)(OCOC(=O)C(C)(C)C)Oc1ccccc1` [((((((R)-1-(6-amino-9H-purin-9-yl)propan-2-yl)oxy)methyl) (phenoxy)phosphoryl)oxy)methyl pivalate fumarate], the permeability classification result in data set [1] was “highly permeable”. The same compound displayed a P-app in data set [1] (apical to basal) of more than 20 ×10⁻⁶ cm/s. Also, in data set [2], the IC50 at 48 h was more than 100 µM and the IC50 at 96 h is more than 100 µM. For the same compound, in data set [3], the IC50 was less than 1 µM. The “SI (selectivity index)” value in data set [3] (window between cytotoxicity (CC50) and antiviral activity (IC50), fumarate) is given as more than 100. Further, in data set [3] (window between cytotoxicity (CC50) and antiviral activity (IC50); fumarate)), the “SI (selectivity index)” value was more than 100. Besides, the IC50 at 72 h in data set [4] was more than 100 µM. Further, the half-maximal cytotoxic concentration (CC50) at 72 h in data set [5] was more than 100 µM.

Take `C[C@H](Cn1cnc2c(N)ncnc21)OCP(=O)(O)Oc1ccccc1` [Compound of formula 2, tenphenol]: in data set [1], the permeability classification result is “moderately permeable”. Moreover, in data set [2], the IC50 at 48 h was more than 100 µM and the IC50 at 96 h was more than 100 µM. The Papp A→B in the data set “in vitro” is less than 20 ×10⁻⁶ cm/s. In data set [3], this compound displayed an IC50 of approximately 12 µM. The “SI (selectivity index)” value in data set [3] (window between cytotoxicity (CC50) and antiviral activity (IC50)) is given as more than 8.33. For the same compound, in data set [3] (window between cytotoxicity (CC50) and antiviral activity (IC50), listed as compound of formula 2), the “SI (selectivity index)” value turned out to be 8.33. Besides, the IC50 at 72 h in data set [4] was more than 100 µM. In data set [5], this compound had a CC50 at 72 h of more than 100 µM.
